Patent US20250064990A1, “METHODS OF SCREENING FOR VMAT2 INHIBITORS” (Neurocrine Biosciences, Inc., priority 2021, published 2025)
In brackets after ≈: the same amount, converted by molar mass. Like-named read-outs stand apart in the source and are kept apart here.

Molecular target: VMAT2 (Homo sapiens, UniProt Q05940)
Assay: VMAT2 target occupancy of single oral doses of NBI-750142 in healthy adult male subjects, [^18F]AV-133 PET
Assay type: in vivo
Set-up: from tissue; host or cells: brain (caudate, putamen, midbrain) of living healthy adult male subjects
Settings: for [^18F]AV-133 BPND T2 / NBI-750142 T2 Occ: T2 (18 h post dose); for NBI-750142 T1 Occ / [^18F]AV-133 BPND T1: T1 ([…] post dose); for EC50: read-out: EC50 (NBI-750142 plasma concentration vs VMAT2 striatal occupancy) (converted)
Procedure: This study was conducted to evaluate the brain penetration and target engagement of VMAT2 after single oral doses of NBI-750142 in healthy subjects. This PET study assessed the engagement of NBI-750142 with VMAT2 in vivo at two time-points after dosing. A sequential-cohort design allowed for the safety, target-occupancy, and available pharmacokinetic (PK) data from each prior cohort to be evaluated before selection of the dose level for the next cohort. A range of NBI-750142 doses (max. 200 mg) were studied to explore the relationship between NBI-750142 plasma concentrations and engagement of VMAT2 in selected brain regions.
This was a Phase 1 single-center, open-label, single-dose, target occupancy study of NBI-750142 in up to 12 healthy male subjects using [^18F]AV-133 PET imaging. […] A total of 12 subjects completed the study. Subjects enrolled in the study were required to report to the clinical research site for 4 separate occasions, detailed below.
Two subjects were initially enrolled in each dose cohort. Each subject received one brain structural magnetic resonance imaging (MRI) scan during screening and up to 3 [^18F]AV-133 PET scans (1 baseline and up to 2 follow-up scans after receiving a single dose of NBI-750142). Subjects enrolled in the first cohort received a single dose of 100 mg of NBI-750142 orally on Day 1. PET scans occurred on Day 1 at approximately 1.5 hours post NBI-750142 dose and on Day 2 at approximately 18 hours post NBI-750142 dose. Subjects were then discharged from the study center after all Day 3 procedures and assessments were completed.
Subjects were administered a single dose of [^18F]AV-133 intravenously over 3 minutes using an infusion pump (approximately 3.33 mL per minute) through a venous catheter followed by a 10 mL saline flush. Dynamic PET imaging of the brain was acquired over 120 min following radiotracer injection on a Siemens Biograph 6 PET/CT camera according to the following protocol: • CT scan of the head • [^18F]AV-133 injection (T=0 min) • Emission scan: 6×30 sec, 4×1 min, 4×2 min, 21×5 min (0-120 min)
Reconstructed PET imaging data volumes were transferred to the image processing PMOD software package (PMOD Technologies, Zurich, Switzerland) where the images were motion and decay corrected, realigned onto the subject MRI and subsequently normalized into the standard MNI (Montreal Neurological Institute) space where volumes of interest (VOIs) were defined from a template (see e.g., Hammers et al, Adult brain maximum probability map (“Hammersmith atlas”; n30r83) in MNI space. 2008). The subject MRI was segmented into grey matter, white matter, and CSF maps. Average activity concentration (kBq/cc) within each VOI, constrained to grey matter voxels for cortical regions, were determined and time activity curves (TACs) were generated. TACs were extracted from the following VOIs: caudate and putamen (striatum), midbrain, cerebellar and occipital cortices. TACs and were expressed in standard uptake value (SUV) units (g/mL) by normalizing with the weight of the subject and the injected dose. The occipital cortex was used as a reference region to normalize activity in target regions to generate SUVr images. For visualization, standard uptake value ratio (SUVr) images were computed between 60-120 min. Non-displaceable binding potential (BPND), the primary outcome measure, was estimated with noninvasive Logan graphical analysis (NI-LGA, t*=20 min) in caudate, putamen and midbrain using the occipital cortex as the reference region. Percent measured occupancy (OM) of NBI-750142 (drug) by region was computed according to the Equation 3-1 at each of the post-dose timepoints, T1 (1.5 h post dose) and T2 (18 h post dose).
Post-hoc exploratory analysis applied an Upregulation model (Equation 3-3), in order to account for the apparent ‘negative occupancy’ values observed at T2 (BPND values at T2 were unexpectedly higher than corresponding BPND values at baseline). […]

[1] = Cohort 4, 60 mg, Subject 1, Midbrain
[2] = Cohort 4, 60 mg, Subject 1, Putamen
[3] = Cohort 4, 60 mg, Subject 2, Caudate
[4] = Cohort 4, 60 mg, Subject 2, Midbrain
[5] = Cohort 4, 60 mg, Subject 2, Putamen
[6] = Cohort 5A, 10 mg, Subject 1, Caudate (2nd line so labelled)
[7] = Cohort 5A, 10 mg, Subject 1, Caudate
[8] = Cohort 5A, 10 mg, Subject 1, Midbrain
[9] = Cohort 5A, 10 mg, Subject 2, Caudate (2nd line so labelled)
[10] = Cohort 5A, 10 mg, Subject 2, Caudate
[11] = Cohort 5A, 10 mg, Subject 2, Midbrain
[12] = Cohort 5B, 10 mg, Subject 3, Caudate
[13] = Cohort 5B, 10 mg, Subject 3, Midbrain
[14] = Cohort 5B, 10 mg, Subject 3, Putamen
[15] = Cohort 5B, 10 mg, Subject 4, Caudate
[16] = Cohort 5B, 10 mg, Subject 4, Midbrain
[17] = Cohort 5B, 10 mg, Subject 4, Putamen
[18] = Upregulation model, post hoc exploratory, both T1 and T2 data
[19] = average of caudate and putamen, 100 mg

Sequence of VMAT2 (Q05940 whole entry): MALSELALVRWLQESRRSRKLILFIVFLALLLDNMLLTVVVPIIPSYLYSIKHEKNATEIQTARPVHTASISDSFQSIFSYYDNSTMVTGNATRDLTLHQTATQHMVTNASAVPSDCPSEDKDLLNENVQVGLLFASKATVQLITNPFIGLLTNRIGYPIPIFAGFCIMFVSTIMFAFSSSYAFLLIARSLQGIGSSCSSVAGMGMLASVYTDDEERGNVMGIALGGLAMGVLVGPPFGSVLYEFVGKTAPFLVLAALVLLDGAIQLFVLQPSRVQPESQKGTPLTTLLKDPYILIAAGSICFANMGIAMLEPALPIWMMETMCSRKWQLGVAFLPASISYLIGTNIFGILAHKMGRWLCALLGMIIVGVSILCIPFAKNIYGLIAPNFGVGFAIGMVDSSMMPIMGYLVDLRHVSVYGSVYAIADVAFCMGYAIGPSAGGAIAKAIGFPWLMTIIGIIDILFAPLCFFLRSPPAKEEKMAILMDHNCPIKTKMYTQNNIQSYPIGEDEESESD

Compound: COc1cc2c(cc1OC)[C@H]1CN(C)[C@H](CC(C)(C)C)CN1CC2 [NBI-750142]
- [^18F]AV-133 BPND T2 (Cohort 4, 60 mg, Subject 1, Caudate): 1.69
- NBI-750142 T1 Occ [1]: 55%
- [^18F]AV-133 BPND T1 [1]: 0.20
- NBI-750142 T2 Occ [1]: −1%
- [^18F]AV-133 BPND T2 [1]: 0.44
- NBI-750142 T1 Occ [2]: 39%
- [^18F]AV-133 BPND T1 [2]: 1.10
- NBI-750142 T2 Occ [2]: −12%
- [^18F]AV-133 BPND T2 [2]: 2.01
- NBI-750142 T1 Occ [3]: 11%
- [^18F]AV-133 BPND T1 [3]: 1.26
- NBI-750142 T2 Occ [3]: −13%
- [^18F]AV-133 BPND T2 [3]: 1.61
- NBI-750142 T1 Occ [4]: 27%
- [^18F]AV-133 BPND T1 [4]: 0.28
- NBI-750142 T2 Occ [4]: −12%
- [^18F]AV-133 BPND T2 [4]: 0.42
- NBI-750142 T1 Occ [5]: 8%
- [^18F]AV-133 BPND T1 [5]: 1.73
- NBI-750142 T2 Occ [5]: −12%
- [^18F]AV-133 BPND T2 [5]: 2.09
- Occupancy at T2 in striatum (Cohort 4 at 60 mg, subject 1, 18 h post dose): −10%
- Occupancy at T2 in striatum (Cohort 4 at 60 mg, subject 2, 18 h post dose): −12%
- Occupancy at T2 in striatum (Cohort 5A at 10 mg, subject 1, 18 h post dose): −3%
- Occupancy at T2 in striatum (Cohort 5A at 10 mg, subject 2, 18 h post dose): −4%
- NBI-750142 T1 Occ [6]: 26%
- [^18F]AV-133 BPND T1 [6]: 1.76
- NBI-750142 T2 Occ [6]: −4%
- [^18F]AV-133 BPND T2 [6]: 2.48
- NBI-750142 T1 Occ [7]: 27%
- [^18F]AV-133 BPND T1 [7]: 1.14
- NBI-750142 T2 Occ [7]: −2%
- [^18F]AV-133 BPND T2 [7]: 1.58
- NBI-750142 T1 Occ [8]: 41%
- [^18F]AV-133 BPND T1 [8]: 0.31
- NBI-750142 T2 Occ [8]: 1%
- [^18F]AV-133 BPND T2 [8]: 0.52
- NBI-750142 T1 Occ [9]: 9%
- [^18F]AV-133 BPND T1 [9]: 2.88
- NBI-750142 T2 Occ [9]: −6%
- [^18F]AV-133 BPND T2 [9]: 3.34
- NBI-750142 T1 Occ [10]: 11%
- [^18F]AV-133 BPND T1 [10]: 1.98
- NBI-750142 T2 Occ [10]: −3%
- [^18F]AV-133 BPND T2 [10]: 2.29
- NBI-750142 T1 Occ [11]: 20%
- [^18F]AV-133 BPND T1 [11]: 0.43
- NBI-750142 T2 Occ [11]: −19%
- [^18F]AV-133 BPND T2 [11]: 0.65
- Occupancy at T2 in striatum (Cohort 5B at 10 mg, subject 3, 18 h post dose): −14%
- Occupancy at T2 in striatum (Cohort 5B at 10 mg, subject 4, 18 h post dose): 5%
- NBI-750142 T1 Occ [12]: −2%
- [^18F]AV-133 BPND T1 [12]: 2.51
- NBI-750142 T2 Occ [12]: −14%
- [^18F]AV-133 BPND T2 [12]: 2.81
- NBI-750142 T1 Occ [13]: 19%
- [^18F]AV-133 BPND T1 [13]: 0.40
- NBI-750142 T2 Occ [13]: −14%
- [^18F]AV-133 BPND T2 [13]: 0.56
- NBI-750142 T1 Occ [14]: −2%
- [^18F]AV-133 BPND T1 [14]: 2.90
- NBI-750142 T2 Occ [14]: −14%
- [^18F]AV-133 BPND T2 [14]: 3.25
- NBI-750142 T1 Occ [15]: −4%
- [^18F]AV-133 BPND T1 [15]: 2.35
- NBI-750142 T2 Occ [15]: 4%
- [^18F]AV-133 BPND T2 [15]: 2.16
- NBI-750142 T1 Occ [16]: 0%
- [^18F]AV-133 BPND T1 [16]: 0.52
- NBI-750142 T2 Occ [16]: −2%
- [^18F]AV-133 BPND T2 [16]: 0.53
- NBI-750142 T1 Occ [17]: −3%
- [^18F]AV-133 BPND T1 [17]: 3.03
- NBI-750142 T2 Occ [17]: 6%
- [^18F]AV-133 BPND T2 [17]: 2.75
- EC50 (Emax model, T1 occupancy values alone): 76.7 nM
- EC50 (NBI-750142 plasma concentration vs VMAT2 striatal occupancy) (Emax model, both T1 and T2 occupancy values): 0.0352 µg/mL (≈ 0.106 µM)
- upregulation factor (URF) (Upregulation model, both T1 and T2 data): 2.76
- EC50 (NBI-750142 plasma concentration vs VMAT2 striatal occupancy) [18]: 0.0063 µg/mL (≈ 0.0189 µM)
- EC50 [18]: 19.5 nM
- [^18F]AV-133 striatal uptake at T2 (across all cohorts): appeared to return to, or slightly exceed, baseline levels
- Occupancy in the striatum at T1, lower end of range (average of caudate and putamen, 10 mg): −4%
- Occupancy in the striatum at T1, upper end of range [19]: 76%
- Occupancy in the striatum at T2, upper end of range [19]: 14%
- Occupancy in the striatum at T2, lower end of range (average of caudate and putamen, 200 mg): −28%
